Read-outs that look alike come from different tables or passages of the source.
Legend:
[1] = test system: Human breast cancer cell line T47D; experiment: Cell based caspase-3 activity assay: potentiation of MMS induced apoptosis; conditions: T47D cells, 11.1 μg/ml MMS, 24 hours, intracellular caspase-3 activity, read-out: EC50 (nM), potentiation of the apoptosis inducing activity of MMS
From the text: Determination of the synergistic potentiation effect of 1-(3-(4-(pyrimidin-2-yl)piperazine-1-carbonyl)benzyl)quinazoline-2,4(1H,3H)-dione and analogs on MMS induced apoptosis using a cell based caspase-3 activity assay
Human breast cancer cell line T47D was used to determine the potentiation effect of PARP inhibitors on the apoptosis inducing activity of DNA damaging anticancer drugs such as MMS. Intracellular caspase-3 activity was used to measure cell apoptosis. The dose response effect of MMS to induce intracellular caspase activity was carefully titrated and the concentration that only induces a minimal level of caspase activity was used to test the potentiation effect of PARP inhibitors. Briefly, T47D cells were grown in DMEM/F12 cell culture medium (Hyclone) supplemented with 0.2 U/ml insulin (Genview) and 10% FBS (Hyclone). A day before experiment, 20000 of T47D cells were seeded to each well of a 96-well cell culture plate and maintained at 37° C. and 5% CO2 in a cell culture incubator overnight. On the day of experiment, cell culture medium was removed. One hundred and eighty μl of fresh medium containing 11.1 μg/ml MMS was added to each well and followed by 20 μl medium containing 10 folds of the concentrations of experimental drugs or reference compounds (ADZ2281 and ABT-888). The serial dilutions of the compounds to be tested and the reference compounds were made in a 1:3 and 1:10 fashion in DMSO. The 10-fold compound solutions were made by mixing 10 μl DMSO serial dilution solutions with 90 μl fresh growth medium. Twenty four hours later, the cells in the 96-well plates were centrifuged at 1000 g for 5 min and the supernatants were removed. Fifty μl lysis buffer (10 mM Tris, pH7.5, 0.1M NaCl, 1 mM EDTA, 0.01% Triton X-100) was added to each well and the plates were shaked horizontally for 30 min at 4° C. After centrifugation at 1000 g at 4° C. for 10 min, 20 μl of supernatant was transferred from each well to a corresponding well in a 384-well black plate. Twenty μl of buffer (20 mM PIPES, pH7.4, 4 mM EDTA and 0.2% CHAPS) containing 20 μM fluorescent caspase-3 substrate ((Ac-DEVD)2-R110, AnaSpec Cat #60304-5) was added to each well afterwards. The plates were shaked to uniformly mix the wells and incubated at 37° C. for 3 h. The fluorescence intensity was measured using the following wavelength: ex: 496 nm, em: 520 nm using a fluorescence plate reader (Varioskan Flash, Thermo Fisher Scientific). The caspase-3 activity induced by the compounds was expressed as a relative fluorescence unit (RFU). The obtained fluorescence readings were analyzed using a commercial graphic software (GraphPad Prism 5) and plotted against the Log value of the compound concentrations. The EC50 values were obtained by fitting the data points with the equation of Y (fluorescence reading)=minimal fluorescence reading+(maximal fluorescence reading−minimal fluorescence reading)/(1+10^(Log EC50−Log C)), where C is the concentration of the testing compound.
The synergistic potentiation effect of compounds on MMS induced apoptosis in T47D cells is expressed as EC50 values and listed in Table 2.

[2] = test system: SW620 human colorectal cancer cells; experiment: MTT based cell viability assay: potentiation of the growth inhibiting activity of MMS
Protocol: Briefly, SW620 human colorectal cancer cells were used to measure the cell growth inhibiting activity of DNA alkylating anticancer drug MMS. […] SW620 cells were grown and maintained in RPMI1640 (Gibco) medium supplemented with 10% FBS (Hyclone). In the first day of experiment, 4000 cells were seeded to each well of a 96-well cell culture plate and incubated at 37° C. and 5% CO2 in a cell culture incubator overnight. In the next day, the cell culture medium was removed. […] The serial dilutions of the reference compounds and the compounds to be tested were made with a 1:3 and 1:10 fashion in DMSO. The 10-fold concentrated solutions of these compounds were made by mixing 10 μl of the serial dilutions in DMSO with 90 μl fresh medium. The final concentration of DMSO in the medium was 1%. The cells were incubated at 37° C. in 5% CO2 cell culture incubator for additional 5 days (120 hours). Afterwards, the 96-well cell culture plate was taken out and 20 μl of MTT solution was added to each well and incubated at 37° C. for 4 h. The medium was removed and 100 μl DMSO was added to each well. The 96-well cell culture plates were shaked adequately for 10 min and read in a Varioskan Flash plate reader (Thermo Fisher Scientific) at 520 and 690 nm. The data were analyzed by Prism 5 software (GraphPad). The obtained 520 nm absorbance readings subtracting corresponding 690 nm reading were analyzed and plotted against the Log scale of the compound concentrations.

[3] = Homo sapiens, SW-620, 120 h, read-out: IC50 (nM), potentiation of the growth inhibiting activity of MMS, SW620 cells, 1.7 μg/ml MMS, 5 days (120 hours), MTT
[4] = read-out: IC50 (nM), potentiation of the growth inhibiting activity of MMS, SW620 cells, 1.7 μg/ml MMS, 5 days (120 hours), MTT

Compound | EC50 ([1]; Homo sapiens, T47D, 24 h) [nM] | IC50 [2, 3] [nM] | EC50 [1] [nM] | IC50 [2, 4] [nM]
O=C(O)c1cc(Cn2c(=O)[nH]c(=O)c3ccccc32)ccc1F [Example 22, 1-(3-Carboxy-4-fluorobenzyl)quinazoline-2,4(1H,3H)-dione] | > 10000 | > 10000 | – | –
1-(3-(4-Phenylpiperidine-1-carbonyl)benzyl)quinazoline-2,4(1H,3H)-dione [Example 18] | – | – | > 10000 | > 10000
O=C(c1cccc(-n2c(=O)[nH]c(=O)c3ccccc32)c1)N1CCN(c2ncccn2)CC1 [Example 221, 1-(3-(4-(Pyrimidin-2-yl)piperazine-1-carbonyl)phenyl)quinazoline-2,4(1H,3H)-dione] | > 10000 | > 10000 | – | –
O=C(c1cccc(Cn2c(=O)[nH]c(=O)c3ccccc32)c1Cl)N1CCN(C(=O)C2CCCC2)CC1 [Example 59, 1-(2-Chloro-3-(4-(cyclopentylcarbonyl)piperazine-1-carbonyl)benzyl)quinazoline-2,4(1H,3H)-dione] | > 10000 | > 10000 | – | –
O=C(c1cccc(Cn2c(=O)[nH]c(=O)c3ccccc32)c1Cl)N1CCN(c2ncccn2)CC1 [Example 60, 1-(2-Chloro-3-(4-(pyrimidin-2-yl)piperazine-1-carbonyl)benzyl)quinazoline-2,4(1H,3H)-dione] | > 10000 | > 10000 | – | –
O=C(c1ccc(Cn2c(=O)[nH]c(=O)c3ccccc32)cc1)N1CCN(c2ncccn2)CC1 [Example 97, 1-(4-(4-(Pyrimidin-2-yl)piperazine-1-carbonyl)benzyl)quinazoline-2,4(1H,3H)-dione] | > 10000 | > 10000 | – | –
O=C(c1cccc(Cn2c(=O)[nH]c(=O)c3ccccc32)c1)c1ccc2nncn2c1 [Example 198, 1-(3-([1,2,4]Triazolo[4,3-a]pyridine-6-carbonyl)benzyl)quinazoline-2,4(1H,3H)-dione] | > 10000 | > 10000 | – | –
COc1ccc2c(c1)c(=O)[nH]c(=O)n2Cc1cccc(C(=O)N2CCN(c3ncccn3)CC2)c1 [Example 204, 6-Methoxy-1-(3-(4-(pyrimidin-2-yl)piperazine-1-carbonyl)benzyl)quinazoline-2,4(1H,3H)-dione] | > 10000 | > 10000 | – | –
O=C(c1cccc(Cn2c(=O)[nH]c(=O)c3cc4c(cc32)OCO4)c1)N1CCN(c2ncccn2)CC1 [Example 216, 6,7-Methylenedioxo-1-(3-(4-(pyrimidin-2-yl)piperazine-1-carbonyl)benzyl)quinazoline-2,4(1H,3H)-dione] | – | – | > 10000 | > 10000
O=C(NC1CCCCC1)N1CCN(C(=O)c2cccc(Cn3c(=O)[nH]c(=O)c4ccccc43)c2)CC1 [Example 191, 1-(3-(4-(Cyclohexylcarbamoyl)piperazine-1-carbonyl)benzyl)quinazoline-2,4(1H,3H)-dione] | – | 192 | – | –

More lines, in order of falling EC50 ([1]; Homo sapiens, T47D, 24 h), values ahead:

EC50 ([1]; Homo sapiens, T47D, 24 h) [nM] | IC50 [2, 3] [nM] | EC50 [1] [nM] | IC50 [2, 4] [nM] | Compound
6600 | 727 | – | – | O=C(c1cccc(Cn2c(=O)[nH]c(=O)c3ccccc32)c1)N1CCN(C(=O)C2CCOCC2)CC1 [Example 13, 1-(3-(4-(Tetrahydro-2H-pyran-4-carbonyl)piperazine-1-carbonyl)benzyl)quinazoline-2,4(1H,3H)-dione]
5210 | 2960 | – | – | O=C(c1cccc(Cn2c(=O)[nH]c(=O)c3ccc(F)cc32)c1)N1CCN(C(=O)C2CCCC2)CC1 [Example 77, 1-(3-(4-(Cyclopentylcarbonyl)piperazine-1-carbonyl)benzyl)-7-fluoroquinazoline-2,4(1H,3H)-dione]
2870 | 2660 | – | – | O=C(c1cccc(Cn2c(=O)[nH]c(=O)c3ccccc32)c1)N1CCN(S(=O)(=O)C2CCCCC2)CC1 [Example 75, 1-(3-(4-(Cyclohexylsulfonyl)piperazine-1-carbonyl)benzyl)quinazoline-2,4(1H,3H)-dione]
2660 | 5270 | – | – | CCN1CCN(C(=O)c2cccc(Cn3c(=O)[nH]c(=O)c4ccccc43)c2)CC1 [Example 7, 1-(3-(4-Ethylpiperazine-1-carbonyl)benzyl)quinazoline-2,4(1H,3H)-dione]
811 | 3380 | – | – | O=C(c1cccc(Cn2c(=O)[nH]c(=O)c3ccccc32)c1)N1CCN(CC2CCCCC2)CC1 [Example 73, 1-(3-(4-(Cyclohexylmethyl)piperazine-1-carbonyl)benzyl)quinazoline-2,4(1H,3H)-dione]
654 | 517 | – | – | O=C(c1cc(Cn2c(=O)[nH]c(=O)c3c(F)cccc32)ccc1F)N1CCC(c2ccccc2)CC1 [Example 214, 5-Fluoro-1-(4-fluoro-3-(4-phenylpiperidine-1-carbonyl)benzyl)quinazoline-2,4(1H,3H)-dione]
220 | 648 | – | – | Cc1cccc2c1c(=O)[nH]c(=O)n2Cc1cccc(C(=O)N2CCN(c3ncccn3)CC2)c1 [Example 159, 5-Methyl-1-(3-(4-(pyrimidin-2-yl)piperazine-1-carbonyl)benzyl)quinazoline-2,4(1H,3H)-dione]
26 | 87 | – | – | O=C(c1cccc(Cn2c(=O)[nH]c(=O)c3c(Cl)cccc32)c1)N1CCN(C(=O)C2CCCCC2)CC1 [Example 102, 5-Chloro-1-(3-(4-(cyclohexylcarbonyl)piperazine-1-carbonyl)benzyl)quinazoline-2,4(1H,3H)-dione]
23 | 19 | – | – | O=C(c1cccc(Cn2c(=O)[nH]c(=O)c3cc(Cl)ccc32)c1)N1CCN(C(=O)c2cccs2)CC1 [Example 115, 6-Chloro-1-(3-(4-(thiophene-2-carbonyl)piperazine-1-carbonyl)benzyl)quinazoline-2,4(1H,3H)-dione]
23 | 48 | – | – | O=C(c1ccc(F)c(Cn2c(=O)[nH]c(=O)c3c(Cl)cccc32)c1)N1CCN(C(=O)C2CCCC2)CC1 [Example 109, 5-Chloro-1-(3-(4-(cyclopentylcarbonyl)piperazine-1-carbonyl)-6-fluorobenzyl)quinazoline-2,4(1H,3H)-dione]
20 | 89 | – | – | O=C(c1ccc(Cl)c(Cn2c(=O)[nH]c(=O)c3ccccc32)c1)N1CCN(C(=O)C2CCCC2)CC1 [Example 55, 1-(6-Chloro-3-(4-(cyclopentylcarbonyl)piperazine-1-carbonyl)benzyl)quinazoline-2,4(1H,3H)-dione]
17 | 61 | – | – | O=C(c1cccc(Cn2c(=O)[nH]c(=O)c3ccccc32)c1F)N1CCN(c2ncccn2)CC1 [Example 61, 1-(2-Fluoro-3-(4-(pyrimidin-2-yl)piperazine-1-carbonyl)benzyl)quinazoline-2,4(1H,3H)-dione]
15 | 50 | – | – | O=C(c1cc(F)cc(Cn2c(=O)[nH]c(=O)c3ccccc32)c1)N1CCN(c2ncccn2)CC1 [Example 63, 1-(5-Fluoro-3-(4-(pyrimidin-2-yl)piperazine-1-carbonyl)benzyl)quinazoline-2,4(1H,3H)-dione]
8.4 | – | – | – | O=C(c1cc(Cn2c(=O)[nH]c(=O)c3cc(Cl)ccc32)ccc1F)N1CCN(C(=O)C2CC2)CC1 [Example 122, 6-Chloro-1-(3-(4-(cyclopropylcarbonyl)piperazine-1-carbonyl)-4-fluorobenzyl)quinazoline-2,4(1H,3H)-dione]
5.2 | 18 | – | – | O=C(c1ccc(F)c(Cn2c(=O)[nH]c(=O)c3cc(F)ccc32)c1)N1CCN(C(=O)c2cccs2)CC1 [Example 151, 6-Fluoro-1-(6-fluoro-3-(4-(thiophene-2-carbonyl)piperazine-1-carbonyl)benzyl)quinazoline-2,4(1H,3H)-dione]
